Molecules are shown by their SMILES. Where a name gives a salt, the structure may show the parent alone.

The test system of the first assay is LDL receptor. As to the kind of experiment: Effects on an activity of a LDL receptor: uptake amount of DiI-LDL into HepG2 cell. The class given is cell-based, human. The settings on record: 1 μM, control group as 100%. The procedure: The 1,1′-dioctadecyl-3,3,3′,3′-tetramethylindocarbocyanine perchlorate (DiI)-labeled LDL (DiI-LDL) was prepared as follows. That is, a DiI (Invitrogen Corp., U.S.A) was mixed with a human LDL (Chemicon International, Inc., U.S.A) and the mixture was incubated at 37° C. for 8 hours. […] After centrifugation, the DiI-labeled LDL fraction was separated and dialyzed with a physiological saline to prepare the above desired solution.
The effects on a LDL receptor activity were determined as the uptake amount of DiI-LDL into HepG2 cell. The cultured human hepatic cell line HepG2 cell was purchased from the Dainippon Pharmaceuticals Co. Ltd. (Osaka, Japan). The HepG2 cells were seeded in a 96 well plate and were incubated in the Dulbecco's modified Eagle/F-12 (DMEM/F-12) medium containing 10% fetal bovine serum and antibiotics in a CO2 incubator at 37° C. for two to three days. After washing the cells, a DMEM/F-12 medium containing 5-10% lipoprotein-deficient serum, the test substrate and the antibiotics were added thereto and the cells were incubated at 37° C. for 19 hours. After adding DiI-LDL, the cells were incubated in a CO2 incubator at 37° C. for another 5 hours. The uptake amount of non-specific DiI-LDL was measured by adding 30 to 50 folds amount of the non-labeled LDL. After washing the cells with Dulbecco's phosphate buffer (Sigma Corp., U.S.A.), the Dulbecco's phosphate buffer was added to each well and then the uptake amount of DiI-LDL into the cell line were measured as the value of fluorescence. After measuring the fluorescence, the Dulbecco's phosphate buffer was removed and thereto was added 1N sodium hydroxide solution to dissolve the cells and the amount of protein was measured by using a part of the resulting solution. The effect on a LDL receptor activity by each compound was determined by calculating the ratio of the amount of fluorescence/the amount of protein, and by subtracting the non-specific uptake amount therefrom and then calculating the control group as 100%.
`COc1cccc([C@]2(CNS(C)(=O)=O)CC[C@@H](NCc3ccc(-c4ccccc4)cc3)CC2)c1` [Example 24, N-{[cis-4-[(biphenyl-4-ylmethyl)amino]-1-(3-methoxyphenyl)cyclohexyl]methyl}methanesulfonamide]: the “Activity of (%) LDL receptor” value is on record as 238%.
Still for that read-out and setting: then `COc1cccc([C@]2(CNS(=O)(=O)N(C)C(=O)OC(C)(C)C)CC[C@@H](NCc3ccc(-c4ccccc4)cc3)CC2)c1` [Example 48, tert-butyl [({[cis-4-[(biphenyl-4-ylmethyl)amino]-1-(3-methoxyphenyl)cyclohexyl]methyl}amino)sulfonyl]methylcarbamate], with 145%; and `CNS(=O)(=O)NC[C@]1(c2cccc(OC)c2)CC[C@H](NCc2ccc(-c3ccccc3)cc2)CC1.Cl` [Example 49, N-{[cis-4-[(biphenyl-4-ylmethyl)amino]-1-(3-methoxyphenyl)cyclohexyl]methyl}-N′-methylsulfamide hydrochloride], with 208%.
For the compound `COc1cccc([C@]2(CNS(N)(=O)=O)CC[C@@H](NCc3ccc(-c4ccccc4)cc3)CC2)c1.Cl` [Example 42, N-{[cis-4-[(biphenyl-4-ylmethyl)amino]-1-(3-methoxyphenyl)cyclohexyl]methyl}sulfamide hydrochloride], the “Activity of (%) LDL receptor” value is listed as 188%.
Same read-out and setting: in the case of `COc1cccc([C@]2(CNS(N)(=O)=O)CC[C@@H](NC(C)c3ccccc3)CC2)c1` (stereo partly drawn) [Example 20, N-({cis-1-(3-methoxyphenyl)-4-[(1-phenylethyl)amino]-cyclohexyl}methyl)sulfamide] it was 128%.

The same assay, now with this note: 3 μM, control group as 100%.
On to `COc1cccc(C2(C(=O)NS(=O)(=O)Oc3c(C(C)C)cccc3C(C)C)CC3CCCC(C2)N3c2ccccc2OC)c1.Cl` (stereo not drawn) [Example 57, 2,6-diisopropylphenyl {[9-(2-methoxyphenyl)-3-(3-methoxyphenyl)-9-azabicyclo[3.3.1]nonan-3-yl]carbonyl}sulfamate hydrochloride], for which the “Activity of (%) LDL receptor” value came out at 124%.
Consider `COc1cccc([C@]2(CNS(N)(=O)=O)CC[C@H](NCc3ccc(-c4ccccc4)cc3)CC2)c1` [Example 43, N-{[trans-4-[(biphenyl-4-ylmethyl)amino]-1-(3-methoxyphenyl)cyclohexyl]methyl}sulfamide hydrochloride], for which the “Activity of (%) LDL receptor” value stood at 146%.
On the same count and under the same terms, in the case of `COc1cccc([C@]2(CCNS(N)(=O)=O)CC[C@@H](NCc3ccc(-c4ccccc4)cc3)CC2)c1.Cl` [Example 22, N-{2-[trans-4-[(biphenyl-4-ylmethyl)amino]-1-(3-methoxyphenyl)cyclohexyl]ethyl}sulfamide hydrochloride] it was 156%; in that of `COc1cccc([C@]2(CNS(=O)(=O)c3ccc(C)cc3)CC[C@@H](NCc3ccc(-c4ccccc4)cc3)CC2)c1` [Example 25, N-{[cis-4-[(biphenyl-4-ylmethyl)amino]-1-(3-methoxyphenyl)cyclohexyl]methyl}-4-methylbenzenesulfonamide], 153%.

Still in this assay, the particulars now being: 10 μM, control group as 100%.
As for `COc1cccc([C@]2(CNS(C)(=O)=O)CC[C@@H](NC3CCN(Cc4ccc(S(C)(=O)=O)cc4)CC3)CC2)c1` [Example 15-2, N-[(cis-1-(3-methoxyphenyl)-4-{1-[4-(methylsulfonyl)-benzyl]piperidin-4-ylamino}cyclohexyl)methyl]methanesulfonamide], the “Activity of (%) LDL receptor” value is listed as 223%.
As for `COc1cccc([C@]2(CNS(=O)(=O)NC(=O)OC(C)(C)C)CC[C@@H](NCc3ccc(-c4ccccc4)cc3)CC2)c1` [Example 41, tert-butyl [({[cis-4-[(biphenyl-4-ylmethyl)amino]-1-(3-methoxyphenyl)cyclohexyl]methyl}amino)sulfonyl]carbamate], the “Activity of (%) LDL receptor” value came to 173%.
Still for that read-out and setting: then `COc1cccc(C2(C(=O)NS(=O)(=O)NC(C)c3ccccc3)CCN(c3ncccn3)CC2)c1` (stereo not drawn) [Example 28-6, 4-(3-methoxyphenyl)-N-{[(1-phenylethyl)amino]sulfonyl}-1-pyrimidin-2-ylpiperidine-4-carboxamide], with 127%; and `COc1cccc([C@]2(CNS(N)(=O)=O)CC[C@H](NC3CCN(Cc4ccccc4)CC3)CC2)c1` [Example 55, N-{[trans-4-[(1-benzylpiperidin-4-yl)amino]-1-(3-methoxyphenyl)cyclohexyl]methyl}sulfamide dihydrochloride], with 140%; and `COc1cccc([C@]2(CNS(C)(=O)=O)CC[C@@H](NCc3ccc(S(C)(=O)=O)cc3)CC2)c1` [Example 12-2, N-[(cis-1-(3-methoxyphenyl)-4-{[4-(methylsulfonyl)benzyl]-amino}cyclohexyl)methyl]methanesulfonamide], with 142%.
The same measure, in the same setting: in the case of `COc1cccc([C@]2(CNS(N)(=O)=O)CC[C@@H](NCc3ccc(S(N)(=O)=O)cc3)CC2)c1.Cl` [Example 38, 4-({[cis-4-{[(aminosulfonyl)amino]methyl}-4-(3-methoxyphenyl)cyclohexyl]amino}methyl)benzenesulfonamide hydrochloride] it was 150%; in that of `COc1cccc([C@]2(CNS(C)(=O)=O)CC[C@@H](NC3CCN(Cc4ccc(NC(C)=O)cc4)CC3)CC2)c1` [Example 15-1, N-[4-({4-[(cis-4-(3-methoxyphenyl)-4-{[(methylsulfonyl)-amino]methyl}cyclohexyl)amino]piperidin-1-yl}methyl)phenyl]acetamide], 192%.
In the case of `COc1cccc(C2(NS(=O)(=O)NC(=O)c3ccc(Cl)cc3)CCN(c3ncccn3)CC2)c1` [Example 34, 4-chloro-N-({[4-(3-methoxyphenyl)-1-pyrimidin-2-yl-piperidin-4-yl]amino}sulfonyl)benzamide], the “Activity of (%) LDL receptor” value was determined as 139%.
Take `COc1cccc([C@]2(CNS(C)(=O)=O)CC[C@@H](NC3CCNCC3)CC2)c1` [Example 10-3, N-{[cis-1-(3-methoxyphenyl)-4-(piperidin-4-ylamino)-cyclohexyl]methyl}methanesulfonamide dihydrochloride]: the “Activity of (%) LDL receptor” value came out at 162%.
Still for that read-out and setting: in the case of `COc1cccc([C@]2(CNS(N)(=O)=O)CC[C@@H](NCc3ccc(-n4cncn4)cc3)CC2)c1` [Example 18-3, N-[(cis-1-(3-methoxyphenyl)-4-{[4-(1H-1,2,4-triazol-1-yl)-benzyl]amino}cyclohexyl)methyl]sulfamide] it was 154%; in that of `COc1cccc(C2(CNS(C)(=O)=O)CCN(c3ccccc3OC)CC2)c1` [Example 27-1, N-{[1-(2-methoxyphenyl)-4-(3-methoxyphenyl)piperidin-4-yl]methyl}methanesulfonamide], 108%; in that of `COc1cccc(C2(C(=O)NP(=O)(Cc3ccccc3C)OC)CCN(c3ccccc3OC)CC2)c1` (stereo not drawn) [Example 2-1, methyl N-{[1-(2-methoxyphenyl)-4-(3-methoxyphenyl)piperidin-4-yl]carbonyl}-P-(2-methylbenzyl)-phosphonamidate], 140%.
Turning to `COc1cccc([C@]2(CNS(C)(=O)=O)CC[C@H](N3CCN(C)CC3)CC2)c1` [Example 13-1, N-{[trans-1-(3-methoxyphenyl)-4-(4-methylpiperazin-1-yl)cyclohexyl]methyl}methanesulfonamide], the “Activity of (%) LDL receptor” value is 129%.
On the same count and under the same terms, in the case of `COc1cccc(C2(C(=O)NS(=O)(=O)Oc3c(C(C)C)cccc3C(C)C)CCN(c3ncccn3)CC2)c1` [Example 1-17, 2,6-diisopropylphenyl {[4-(3-methoxyphenyl)-1-pyrimidin-2-ylpiperidin-4-yl]carbonyl}sulfamate] it was 120%; in that of `COc1cccc(C2(CNS(=O)(=O)c3ccc(C)cc3)CCN(C(c3ccccc3)c3ccccc3)CC2)c1` [Example 36, N-{[1-(diphenylmethyl)-4-(3-methoxyphenyl)piperidin-4-yl]methyl}-4-methylbenzenesulfonamide], 122%; in that of `COc1cccc(C2(C(=O)NS(=O)(=O)Oc3c(C(C)C)cccc3C(C)C)CCC(Nc3ccccc3OC)CC2)c1` (stereo not drawn) [Example 3-2, 2,6-diisopropylphenyl ({1-(3-methoxyphenyl)-4-[(2-methoxyphenyl)amino]cyclohexyl}carbonyl)sulfamate], 154%.
On the same count and under the same terms, in the case of `COc1cccc(C2(C(=O)NS(=O)(=O)Oc3ccccc3C(C)(C)C)CCN(c3ccccc3OC)CC2)c1` [Example 1-8, 2-tert-butylphenyl {[1-(2-methoxyphenyl)-4-(3-methoxyphenyl)piperidin-4-yl]carbonyl}sulfamate] it was 134%; in that of `COc1cccc(C2(C(=O)NS(N)(=O)=O)CCN(c3ncccn3)CC2)c1` [Example 28-1, N-(aminosulfonyl)-4-(3-methoxyphenyl)-1-pyrimidin-2-ylpiperidine-4-carboxamide], 186%.

Values taken from patent US20080096922A1, “Novel Sulfonamide derivative” (Dainippon Sumitomo Pharma Co., Ltd., priority 2004, published 2008).
